Experimental data published in ChEMBL document CHEMBL3600368, “Novel broad-spectrum inhibitors of bacterial methionine aminopeptidase” (Bioorg Med Chem Lett, 2015).
In brackets after ≈: the same amount, converted by molar mass. Residues, ends and D or L forms follow the SMILES beside them. *: point of attachment. Cbz = O=C(OCc1ccccc1)*

How the values were obtained:
[1] = Inhibition of Escherichia coli methionine aminopeptidase
[2] = Lipophilicity, log D of the compound; assay type: physicochemical; conditions: octanol/water
[3] = Solubility of the compound; assay type: physicochemical
[4] = Unbound fraction in plasma (unknown origin); assay type: ADME, cell-free
[5] = Inhibition of Haemophilus influenzae methionine aminopeptidase
[6] = Inhibition of Streptococcus pneumoniae methionine aminopeptidase
[7] = Intrinsic clearance in rat liver microsomes; assay type: ADME; conditions: read-out: CLH
[8] = Inhibition of Staphylococcus aureus methionine aminopeptidase

| Structure (SMILES) | IC50 [1] [µM] | logD [2] | solubility [3] [µM] | fraction unbound [4] | IC50 [5] [µM] | IC50 [6] [µM] | microsomal CLint [7] [µL/min/mg] | IC50 [8] [µM] |
| --- | --- | --- | --- | --- | --- | --- | --- | --- |
| C[C@H](NC(=O)Cc1cc(F)cc(F)c1)C(=O)N[C@H]1CC=C[C@H](c2ccccc2)N(C)C1=O | 30 | 2.6 | 450 (≈ 199 µg/mL) | 0.051 | 60 | 46 | 339 | > 200 |
| C[C@H](NC(=O)OCc1ccccc1)C(=O)N[C@H]1CC=C[C@H](c2ccccc2)N(C)C1=O | 8.1 | 1.65 | 341 (≈ 144 µg/mL) | 0.027 | 11.3 | 7.4 | 720 |  |
| CC(=O)N[C@@H](C)C(=O)N[C@H]1CC=C[C@H](c2ccccc2)N(C)C1=O | > 200 |  |  |  | > 200 | > 200 |  |  |
| C[C@H](NC(=O)OCc1ccccc1)C(=O)N[C@H]1CC=C[C@@H](c2ccccc2)N(C)C1=O | > 200 |  |  |  | > 200 | > 200 |  |  |
| CN1C(=O)[C@@H](NC(=O)C(C)(C)NC(=O)OCc2ccccc2)CC=C[C@@H]1c1ccccc1 | > 200 |  |  |  | > 200 | > 200 |  |  |
| C[C@@H](C(=O)N[C@H]1CC=C[C@H](c2ccccc2)N(C)C1=O)N(C)C(=O)OCc1ccccc1 | > 200 |  |  |  | > 200 | > 200 |  |  |
| CC(C)[C@H](NC(=O)OCc1ccccc1)C(=O)N[C@H]1CC=C[C@H](c2ccccc2)N(C)C1=O | > 200 |  |  |  | > 200 | > 200 |  |  |
| CN1C(=O)[C@@H](NC(=O)[C@H](CO)NC(=O)OCc2ccccc2)CC=C[C@@H]1c1ccccc1 | 102 |  |  |  | 132 | 71.4 |  |  |
| C[C@H](NC(=O)[C@@H](N)c1ccccc1)C(=O)N[C@H]1CC=C[C@H](C2CCCCC2)N(C)C1=O | 1.4 | 1.98 | > 1000 | 0.108 | 6.7 | 0.12 | 93.5 |  |
| C[C@H](NC(=O)[C@H](N)c1ccccc1)C(=O)N[C@H]1CC=C[C@H](C2CCCCC2)N(C)C1=O | 8 |  |  |  | 15.6 | 4 |  |  |
| C[C@H](N)C(=O)N[C@@H](C)C(=O)N[C@H]1CC=C[C@H](C2CCCCC2)N(C)C1=O | > 200 |  |  |  | > 200 | > 200 |  |  |
| C[C@H](NC(=O)[C@@H](N)Cc1ccccc1)C(=O)N[C@H]1CC=C[C@H](C2CCCCC2)N(C)C1=O | 2.2 | 2.2 | > 1000 | 0.109 | 4.7 | 9.7 | 689 |  |
| C[C@H](NC(=O)[C@@H](N)c1cccc(Cl)c1)C(=O)N[C@H]1CC=C[C@H](C2CCCCC2)N(C)C1=O | 0.8 | 2.69 | 888 (≈ 409 µg/mL) | 0.016 | 1.1 | 0.3 | 159 |  |
| C[C@H](NC(=O)[C@H](C)NC(=O)OCc1ccccc1)C(N)=O (Cbz-Ala-Ala-NH2) | > 200 |  |  |  | > 200 | > 200 |  |  |
